Assay results reported in patent US6355430B1, “Diagnostic and screening methods employing KIAA0101” (Millennium Pharmaceuticals, Inc., priority 1998, dated 2002).

System: KIAA0101 expression in LNCaP cells
Assay: Expression of KIAA0101 in LNCaP prostate cancer cells treated with casodex
Format: cell-based, human
Protocol: In order to examine the effect of casodex, an anti-androgen, on the expression of KIAA0101, LNCaP cells (androgen-sensitive prostate cancer cells) were grown to 70% confluence in RPMI-1640 (10% FBS). The cultures were then pretreated for 24 hours in dye-free RPMI-1640 containing 5% charcoal stripped serum. The cultures were then treated with either 1 nM R1881 or 100 […] casodex in RPMI-1640 containing 5% charcoal stripped serum prior to harvesting and extraction of total mRNA for expression analysis.

Structure (SMILES): CC(O)(CS(=O)(=O)c1ccc(F)cc1)C(=O)Nc1ccc(C#N)c(C(F)(F)F)c1 (centres unmarked) [casodex]
- decrease (drop) in KIAA0101 expression (LNCaP cells (androgen-responsive prostate cancer cell line), in the presence of casodex): 3 fold
- KIAA0101 expression lower in the presence of casodex than in the presence of R1881 (LNCaP cells, casodex versus R1881 (androgen agonist, 1 nM)): 3 fold
